According to patent US20240207409A1, “ORAL DELIVERY OF OLIGONUCLEOTIDES” (CiVi Biopharma, Inc., priority 2021, published 2024):
Like-named read-outs stand apart in the source and are kept apart here. {GalNAc3NHC6} = trivalent GalNAc moiety with NHC6 linker, (GalNAc3)(NHC6); l = locked nucleic acid (LNA); d = 2'-deoxy (DNA)

Assays:
plasma LDL-cholesterol = assay: Plasma LDL-cholesterol after daily oral CIVI 008/SNAC capsules for 42 days and recovery (Example 1); assay type: in vivo, Cynomolgus monkey; details: for LDL-c in control animals: control capsules, throughout the study
Experimental: (§1) Toxicity results: The study was conducted to GLP standards and monitored the following toxicity parameters throughout the study (pre-dose, day 14, 29, 42, and end of recovery): • Hematology: red blood cell (erythrocyte) count, hemoglobin, hematocrit, mean corpuscular volume, mean corpuscular hemoglobin, mean corpuscular hemoglobin, concentration, red cell distribution width, absolute reticulocyte count, platelet count, white blood cell (leukocyte) count, absolute neutrophil count, absolute lymphocyte count, absolute monocyte count, absolute eosinophil count, absolute basophil count, absolute large unstained cell count, blood smear. • Clinical chemistry, PCSK9 and lipids: urea nitrogen, creatinine, total protein, albumin, globulin, albumin:globulin ratio, total bilirubin, aspartate aminotransferase, alanine aminotransferase, alkaline phosphatase, gamma glutamyltransferase, creatine kinase, calcium, inorganic phosphorus, sodium, potassium, chloride, high density lipoproteins, low density lipoprotein, very low density lipoprotein, total cholesterol, triglycerides.

PCSK9 = PCSK9 reduction after daily oral CIVI 008/SNAC capsules for 42 days (Example 1); assay type: in vivo, Cynomolgus monkey; details: daily oral for 42 days
Experimental: as §1

[1] = Oral capsule PK study of CIVI 008 without GalNAc using 5-CNAC as carrier (Example 5); assay type: in vivo, Cynomolgus monkey; details: single oral capsule, 20 mg/200 mg 5-CNAC; larger
Excerpt: As shown in previous Examples 1 and 3, orally dosed CIVI 008 with GalNAc is rapidly internalized in the liver by the GalNAc receptor, with very little CIVI 008 escaping into general circulation at doses below that required for saturation of the GalNAc receptor. In many instances the objective is to target genes that are expressed in organs other than the liver. […] The objective of this study was to determine the systemic exposure of orally administered CIVI 008 without the GalNAc conjugate, and to compare the exposure to that of a similar oral dose of CIVI 008 with GalNAc.
(§2) Study outline: Dry blended capsules (20 mg CIVI 008 without GalNAc/200 mg 5-CNAC) were manufactured from uniform dry blended formulations, that were filled into enterically coated Size 0, hard shell gelatin capsules. A total of 10 Cynomolgus monkeys (5 males and 5 females) were each administered a single capsule by oral gavage, and blood samples for PK analysis were drawn pre-dose and 0.5, 1.5, 3 and 5 hours post-dosing.

[2] = Liver and intestinal tissue concentrations of CIVI 008 (Example 1); assay type: in vivo, Cynomolgus monkey
Excerpt: The purpose of this study was to provide information on the capsule dosing of CIVI 008 for further clinical trials in humans.

[3] = Oral capsule toxicokinetic study of CIVI 008 using 5-CNAC as carrier (Example 3); assay type: in vivo, Cynomolgus monkey; details: for increase of AUC with dose of CIVI 008 / increase of Cmax with dose of CIVI 008: constant dose of 5-CNAC
Excerpt: The objectives of this study were to determine the ability of 5-CNAC [Disodium N-(5-Chorosalicyloyl)-8-aminocaprylate] to facilitate oral uptake of CIVI 008 and to determine the manufacture method and dosing paradigm of CIVI 008/5-CNAC capsules that provide the most efficient oral uptake of CIVI 008 when administered to Cynomolgus monkeys of Mauritian origin.
Study outline: A total of 10 Cynomolgus monkeys (5 males and 5 females) were each dosed with 2 group A capsules on Monday and Wednesday in week 1, followed by 4 days of dosing holiday. This Monday and Wednesday dosing scheme was continued in weeks 2, 3, 5, 6, 7, 8, 13, 14, 15 and 17 using 2 group B-capsules per dose occasion in week 2, and 1 capsule of groups C to K per dose occasion in their respective weeks. During the dosing period, blood samples for PK analysis were drawn pre-dose and 0.5, 1.5, 3 and 5 hours post-dosing on Mondays and Wednesdays. Samples for clinical chemistry and hematology (see example 1) were taken pre-study and end of study.

[4] = cynomolgus monkey, in vivo, po
Experimental: The objectives of this study were to evaluate the toxicity and reversibility of CIVI 008 and to determine the pharmacology, plasma exposure and target organ accumulation of CIVI 008 when administered daily by oral capsule to the Cynomolgus monkey of Mauritian origin for 42 days compared to administration by the subcutaneous route administered once every two weeks (investigated previously).
Oral Capsule: Capsules containing CIVI 008 (10 mg)/SNAC (100 mg) were manufactured as uniform dry blend formulations, that were filled into Size 4 hard shell gelatin capsules that were enterically coated post fill.

[5] = Half-life and accumulation of CIVI 008 in the liver; assay type: in vivo, non-human primates; details: expected after 7-weeks of once daily dosing
[6] = Repeat-dose toxicity study to GLP standards, oral capsule (Example 1); details: cynomolgus monkey, in vivo
Experimental: as §1

[7] = Oral capsule PK study of an oligo against Factor VII, with or without GalNAc, using 5-CNAC as carrier (Example 6); assay type: in vivo, Cynomolgus monkey; details: for PK parameters compared to the corresponding CIVI 008 oligos: with and without GalNac
Experimental: as §2, with “(20 mg Factor FVII with or without GalNac/200” for “(20 mg CIVI 008 without GalNAc/200”, “or without GalNac/200 mg 5-CNAC)” for “008 without GalNAc/200 mg 5-CNAC)”, “single capsule of either oligo by oral” for “single capsule by oral”

[8] = dose increased further than 25 mg
[9] = oral, two group A capsules (each 10 mg CIVI 008/100 mg 5-CNAC, size 4)
[10] = size 4 (group A) to size 0 (group B) capsules
[11] = single oral capsule, 20 mg/200 mg 5-CNAC
[12] = single oral capsule, 20 mg/200 mg 5-CNAC, higher

With `O=C([O-])CCCCCCCNC(=O)c1ccccc1O.[Na+]` [SNAC, sodium 8-(2-hydroxybenzamido)octanoate, reference compound] the “LDL-c in control animals” value (plasma LDL-cholesterol) was “fluctuated around baseline values” and the “mean PCSK9 reductions in control animals” value (PCSK9) was “comparatively small”.

With “CIVI 008 without GalNAc: 16 nt LNA gapmer AbsAbsTbsdGsdCsdTsdAsdCsdAsdAsdAsdAsdCsCbsCbsAb, SEQ ID NO 134, no GalNAc moiety (AATGCTACAAAACCCA; sugars from the 5' end l3 d10 l3, all phosphorothioate, methylation of C not given here)” the “AUC relative to a similar dose of CIVI 008 with GalNac” value [1] was ~8 fold and the “Cmax relative to a similar dose of CIVI 008 with GalNac” value [1] was ~8 fold.

With “CIVI 008: GalNac conjugated LNA-gapmer antisense oligonucleotide targeting PCSK9 (SEQ ID NO: 134), cepadacursen formulated for oral administration (AATGCTACAAAACCCA; LNA gapmer with GalNAc conjugate, pattern not given here)” the “concentrations of CIVI 008 in intestinal segments” value ([2]; all segments, after QD oral dosing for 42 days) was “measurable concentrations”, the “concentration of CIVI 008 in the liver during the recovery period” value ([2]; declined during recovery, 3-week timepoint) was “still present in measurable quantities” and the “difference in liver concentrations between the SQ and PO arms” value ([2]; measured at the end of the dosing period) was “approximately one”. For the same compound, the “LDL-c in control animals” value (plasma LDL-cholesterol) was “fluctuated around baseline values”, the “return of LDL to baseline” value (plasma LDL-cholesterol; end of recovery) was “had yet to fully return to baseline” and the “LDL levels after the end of dosing” value (plasma LDL-cholesterol; recovery period after 42 days of dosing) was “maintained for two weeks post-dosing”. For the same compound, the “mean PCSK9 reductions in control animals” value (PCSK9) was “comparatively small”, the “increase of AUC with dose of CIVI 008” value [3, 8] was “more than dose proportional” and the “increase of Cmax with dose of CIVI 008” value [3, 8] was “more than dose proportional”. For the same compound, the “increase of AUC with dose of CIVI 008” value ([3]; up to 25 mg CIVI 008) was “dose proportionally”, the “increase of Cmax with dose of CIVI 008” value ([3]; up to 25 mg CIVI 008) was “dose proportionally” and the “AUC profiles, dry blended vs freeze-dried capsules” value ([3]; dose range 5 mg to 30 mg) was “very similar”. For the same compound, the “Cmax profiles, dry blended vs freeze-dried capsules” value ([3]; dose range 5 mg to 30 mg) was “very similar”, the “effect of manufacture method on intestinal absorption” value ([3]; dry blending vs co-dissolution followed by freeze-drying) was “did not appear to affect” and the “AUC0-5 with 5-CNAC carrier compared to a similar dose using SNAC as carrier” value ([3]; oral capsules, vs Example 1) was “increase”. For the same compound, the “Cmax with 5-CNAC carrier compared to a similar dose using SNAC as carrier” value ([3]; oral capsules, vs Example 1) was “increase”, the “concentrations of CIVI 008 in the plasma” value [3, 9] was “measurable concentrations” and the “mean Tmax” value [3, 9] was ≤ 30 min. The “mean Tmax on increasing capsule size” value [3, 10] was “didn't change”, the “mean plasma PK profile on increasing capsule size” value [3, 10] was “didn't change” and the “form of CIVI 008 detected in plasma (HPLC peak)” value [4] was “mixture of parent compound and metabolites”. For the same compound, the “form of CIVI 008 detected in plasma (HPLC retention time)” value [4] was “absorbed intact”, the “mean Tmax” value [4] was ≤ 30 min and the “liver concentration relative to its steady state level” value [5] was > 80%. For the same compound, the “macroscopic or microscopic findings (local or systemic effects)” value [6] was “no macroscopic or microscopic findings” and the “local histopathological changes in the intestinal tract (duodenum, jejunum, ileum and colon)” value ([6]; po) was “no local histopathological changes”.

With “GalNac conjugated Factor FVII oligo: 13 nt ASO against Factor VII, SEQ ID NO 158, with (GalNAc3)(NHC6) moiety (antisense GCACCACGGTCCA; sugars from the 5' end l2 d8 l3, all phosphorothioate, 5' {GalNAc3NHC6}*, methylation of C not given here)” the “concentrations in the plasma” value [7, 11] was “measurable concentrations” and the “PK parameters compared to the corresponding CIVI 008 oligos” value [7] was “quite similar”.

In the case of “unconjugated Factor FVII oligo: 13 nt ASO against Factor VII, SEQ ID NO 158, GbsCbsdAsdCsdCsdAsdCsdGsdGsdTsCbsCbsAb (antisense GCACCACGGTCCA; sugars from the 5' end l2 d8 l3, all phosphorothioate, methylation of C not given here)”, the “concentrations in the plasma” value [7, 11] is reported as “measurable concentrations”, the “AUC relative to the GalNac conjugated Factor FVII oligo” value [7, 12] is reported as ~3.5 fold and the “Cmax relative to the GalNac conjugated Factor FVII oligo” value [7, 12] is reported as ~3.5 fold. The “PK parameters compared to the corresponding CIVI 008 oligos” value [7] was “quite similar”.
